# Like-named read-outs stand apart in the source and are kept apart here.
# Columns and labels:
# [1] = target: T1, c-Met kinase domain recombinant protein (Homo sapiens, UniProt P08581); assay: biochemical; details: read-out: Inhibition rate at 10 μM (%)
# T1 construct: 50 μL diluted solution of c-Met kinase domain recombinant protein in reaction buffer was added to initiate the reaction
# Procedure, shortened: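 ELISA on plates coated with Poly(Glu,Tyr)4:1 (20 μg/mL), kinase reaction with c-Met kinase domain and ATP in HEPES pH 7.4 buffer with MgCl2, MnCl2, Na3VO4 and DTT, 1 h at 37 °C. Phosphotyrosine detected with PY99 and HRP secondary antibody, read at 490 nm; inhibition rate calculated against ATP-free control.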
# [2] = target: T1, c-Met kinase domain recombinant protein; assay: biochemical; details: for inhibition at 0.1 µM: read-out: Average inhibition rate at 0.1 μM (%); for inhibition at 1 µM: read-out: Average inhibition rate at 1 μM (%); for inhibition at 10 µM: read-out: Average inhibition rate at 10 μM (%)
# Procedure, shortened: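 ELISA on plates coated with Poly(Glu,Tyr)4:1 (20 μg/mL coating solution). Recombinant c-Met kinase domain reacted with 5 μM ATP in HEPES pH 7.4 with Mg/Mn, vanadate and DTT for 1 hour at 37° C. Phosphotyrosine was detected with PY99 and HRP secondary antibody, read at 490 nm, and IC50 was taken from a four-parameter fit.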
# MKN45 cell = assay: Test III: growth inhibition of gastric tumor cell MKN45 (SRB); assay type: cell-based; details: Homo sapiens
# Experimental: (§1) Assays on the growth inhibition of the compounds against gastric tumor cell MKN45, non-small cell carcinoma EBC-1 cell (both are MET persistent activated cell lines due to MET gene amplification, and are Met dependent tumor cell lines, MKN45 cell was purchased from JCRB, Japan, EBC-1 cell was purchased from ATCC, USA) were detected using sulforhodamine B (SRB) staining. […] After incubation with compound for 72 hours, the incubation was terminated, adherent cells were retained and medium was discarded, 10% (w/v) trichloroacetic acid (100 μL pre well) was added, the cells were fixed at 4° C. for 1 hour, then rinsed with distilled water for 5 times, after dried at room temperature, SRB solution (4 mg/mL, dissolved in 1% glacial acetic acid) was added at 100 μL per well, incubated and stained at room temperature for 15 minutes, then rinsed with 1% glacial acetic acid for 5 times to remove any unbound SRB, dried at room temperature, then 10 mM Tris solution was added at 100 μL per well, the optical density (OD) value at 515 nm was measured using VERSMax microplate reader.
# (§2) Experiments were conducted in duplicates. IC50 value was calculated by fitting the data for a four parameter fit using inhibition curve, the results are shown below in Table 2.
# EBC-1 cell = assay: Test III: growth inhibition of non-small cell carcinoma EBC-1 cell (SRB); assay type: cell-based; details: Homo sapiens, EBC-1, 72 h; for inhibition at 0.2 µM: read-out: Cell proliferation inhibition rate at 200 nM (%); for inhibition at 1 µM: read-out: Cell proliferation inhibition rate at 1 μM (%)
# Experimental: as §1, §2
# [3] = test system: human lung cancer EBC-1 xenograft; assay: Test IV: human non-small cell lung cancer EBC-1 xenograft growth in nude mice; assay type: in vivo
# Experimental: EBC-1 cells were implanted subcutaneously in the right axilla of nude mice at 5×10^6 cells per mouse, xenograft developed thereby was passaged in nude mice for 3 generations prior to use. Tumor tissue at rapid growth phase was taken, minced under sterile condition into pieces of about 1.5 mm^3, then implanted subcutaneously in the right axilla of nude mice.
# Xenografted tumor diameters were measured twice per week, and body weights of the mice were measured at the same time. Tumor Volume (TV) was calculated by the following equation: TV=1/2×a×b^2, wherein a, b refers to the length and width, respectively. Based on the measurement, Relative Tumor Volume (RTV) was calculated by the following equation: RTV=Vt/V0, wherein V0 is the tumor volume measured when divided for administration (i.e., do), Vt is the tumor volume measured at each timepoint.
# BaF3/TPR-Met cell = assay: Test III: growth inhibition of engineered BaF3/TPR-Met cells (MTT); assay type: cell-based; details: Mus musculus; for inhibition at 0.2 µM: read-out: Cell proliferation inhibition rate at 200 nM (%); for inhibition at 1 µM: read-out: Cell proliferation inhibition rate at 1 μM (%)
# Experimental: Assays on the growth inhibition of the compounds against engineered BaF3/TPR-Met cell (engineered cell line having TPR-Met fusion protein stably expressed in cytoplasm, persistently activated, Met dependent sensitive cell line; BaF3 cell was purchased from DSMZ, German) were detected using microculture tetrozolium (MTT) staining. A certain amount of BaF3/TPR-Met cells at log phase were inoculated into 96-well culture plate at 90 µL per well, incubated overnight and then 10 μL compound at various concentrations or vehicle control (normal saline) was added, each concentration was tested in triplicate. After incubation with compound for 72 hours, the incubation was terminated, MTT solution (5 mg/mL) was added at 20 μL per well, incubated at 37° C. for 4 hours, then 100 μL triplet solution (10% SDS−5% isobutanol−0.01M HCl) was added, incubated overnight at 37° C., OD value was measured at 570 nm. […] Experiments were conducted in duplicates.
# [4] = MKN-45, read-out: Cell proliferation inhibition rate at 1 μM (%), MKN45, 1 μM, 72 hours
# T1 sequence (P08581 1078-1345 limits assumed): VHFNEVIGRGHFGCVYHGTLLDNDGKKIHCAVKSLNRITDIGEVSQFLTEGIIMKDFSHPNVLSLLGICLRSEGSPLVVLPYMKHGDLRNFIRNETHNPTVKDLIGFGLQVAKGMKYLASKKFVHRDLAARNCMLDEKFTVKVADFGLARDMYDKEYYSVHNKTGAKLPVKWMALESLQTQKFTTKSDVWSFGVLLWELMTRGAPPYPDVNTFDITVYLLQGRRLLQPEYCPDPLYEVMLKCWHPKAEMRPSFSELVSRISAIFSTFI
Structure (SMILES),inhibition at 10 µM [1] [%],inhibition at 0.1 µM [2] [%],inhibition at 1 µM [2] [%],inhibition at 10 µM [2] [%],IC50 [2] [nM],"inhibition at 1 µM (BaF3/TPR-Met cell; BaF3/TPR-Met, 1 μM, 72 hours) [%]",further results
"Cn1cc(-c2cnc3cnn(S(=O)(=O)c4cnc5ccc(-c6cccc(C#N)c6)cn45)c3c2)cn1 [Example 100, 1-{[6-(3-cyanophenyl)-imidazo[1,2-a]pyridine]-3-sulfonyl}-6-[(1-methyl)-4-pyrazolyl]-1-H-pyrazolo[4,3-b]pyridine]",> 60.4,83.7,87.3,85.4,–,–,"inhibition at 0.2 µM (MKN45 cell; MKN-45, read-out: Cell proliferation inhibition rate at 200 nM (%), MKN45, 200 nM, 72 hours): 63.8%; inhibition at 1 µM (MKN45 cell; [4]): 66.6%"
"Cn1cc(-c2cnc3cnn(S(=O)(=O)c4cnc5ccc(-c6ccc(CN7CCOCC7)cc6)cn45)c3c2)cn1 [Example 91, 1-{[6-(4-morpholinomethylphenyl)-imidazo[1,2-a]pyridine]-3-sulfonyl}-6-[(1-methyl)-4-pyrazolyl]-1-H-pyrazolo[4,3-b]pyridine]",> 69.4,77.3,85.5,74.1,–,–,inhibition at 1 µM (MKN45 cell; [4]): 72.9%
"Cc1ccc(-c2ccc3ncc(S(=O)(=O)n4ncc5ncc(-c6cnn(C)c6)cc54)n3c2)cc1 [Example 90, 1-{[6-(4-methylphenyl)-imidazo[1,2-a]pyridine]-3-sulfonyl}-6-[(1-methyl)-4-pyrazolyl]-1-H-pyrazolo[4,3-b]pyridine]",> 72.2,69,83,81.1,–,–,inhibition at 1 µM (MKN45 cell; [4]): 17.6%
"O=S(=O)(c1cnc2ccccn12)n1ncc2ncc(-c3ccc(N4CCOCC4)cc3)cc21 [Example 39, 1-(imidazo[1,2-a]pyridine-3-sulfonyl)-6-(4-morpholinylphenyl)-1-H-pyrazolo[4,3-b]pyridine]",68.8,58.2,65,68.8,2.6 ± 0.3,–,"inhibition at 0.2 µM (BaF3/TPR-Met cell; BaF3, 72 h): 74.4%; inhibition at 1 µM (BaF3/TPR-Met cell; BaF3, 72 h): 96.3%"
"CC(=O)N1CCC(n2cc(-c3cnc4cnn(S(=O)(=O)c5cnc6ccccn56)c4c3)cn2)CC1 [Example 54, 1-(imidazo[1,2-a]pyridine-3-sulfonyl)-6-{{1-[(1-acetyl)-4-piperidinyl]}-4-pyrazolyl}-1-H-pyrazolo[4,3-b]pyridine]",70.7,55.9,57.9,62.1,–,89.6,"inhibition at 0.2 µM (BaF3/TPR-Met cell; BaF3/TPR-Met, 200 nM, 72 hours): 88.3%"
"Cn1cc(-c2cnc3cnn(S(=O)(=O)c4cnc5cccnn45)c3c2)cn1 [Example 21, 1-(imidazo[1,2-b]pyridazine-3-sulfonyl)-6-[(1-methyl)-4-pyrazolyl]-1-H-pyrazolo[4,3-b]pyridine]",77.9,59,59.7,77.9,–,42.7,–
"O=C(C1CCCC1)N1CCC(n2cc(-c3cnc4cnn(S(=O)(=O)c5cnc6ccccn56)c4c3)cn2)CC1 [Example 56, 1-(imidazo[1,2-a]pyridine-3-sulfonyl)-6-{{1-[(1-cyclopentylcarbonyl)-4-piperidinyl]}-4-pyrazolyl}-1-H-pyrazolo[4,3-b]pyridine]",62.1,53.3,56.3,58.9,–,90.6,"inhibition at 0.2 µM (BaF3/TPR-Met cell; BaF3/TPR-Met, 200 nM, 72 hours): 79.1%"
"O=C(C1CCCCC1)N1CCC(n2cc(-c3cnc4cnn(S(=O)(=O)c5cnc6ccccn56)c4c3)cn2)CC1 [Example 57, 1-(imidazo[1,2-a]pyridine-3-sulfonyl)-6-{{1-[(1-cyclohexylcarbonyl)-4-piperidinyl]}-4-pyrazolyl}-1-H-pyrazolo[4,3-b]pyridine]",60.8,52.4,54.5,60.3,–,89.5,"inhibition at 0.2 µM (BaF3/TPR-Met cell; BaF3/TPR-Met, 200 nM, 72 hours): 86.8%"

# More lines, main results first:
inhibition at 10 µM [1] [%],inhibition at 0.1 µM [2] [%],inhibition at 1 µM [2] [%],inhibition at 10 µM [2] [%],IC50 [2] [nM],Structure (SMILES),"inhibition at 1 µM (BaF3/TPR-Met cell; BaF3/TPR-Met, 1 μM, 72 hours) [%]",further results
–,89.4,91.3,–,0.5 ± 0.1,"CN1CCN(C(=O)c2ccc(-c3cnc4cnn(S(=O)(=O)c5cnc6ccc(-c7cnn(C)c7)cn56)c4c3)cc2)CC1 [Example 142, 1-{(6-[(1-methyl)-4-pyrazolyl]-imidazo[1,2-a]pyridine)-3-sulfonyl}-6-[4-(4-methylpiperazine-1-carbonyl)phenyl]-1-H-pyrazolo[4,3-b]pyridine]",–,"inhibition at 0.2 µM (EBC-1 cell): 92.1%; inhibition at 1 µM (EBC-1 cell): 92.6%; TV (mm^3, mean ± SD) d21 ([3]; 50 mg/kg po qd/21): 259 ± 421 ^ mm^3; Weight (g) d21 ([3]; 50 mg/kg po qd/21): 21.0 g; GI (%) ([3]; 50 mg/kg po qd/21, d21): 90.65%; RTV (mean ± SD) ([3]; 50 mg/kg po qd/21, d21): 2.23 ± 3.89; T/C (%) ([3]; 50 mg/kg po qd/21, day 21): 16.91%; TV (mm^3, mean ± SD) d21 ([3]; 100 mg/kg po qd/21): 21 ± 34 mm^3; Weight (g) d21 ([3]; 100 mg/kg po qd/21): 20.9 g; GI (%) ([3]; 100 mg/kg po qd/21, d21): 106.70%; RTV (mean ± SD) ([3]; 100 mg/kg po qd/21, d21): 0.14 ± 0.21; T/C (%) ([3]; 100 mg/kg po qd/21, day 21): 1.05%"
> 63.8,51.7,62.7,65.5,0.5 ± 0.1,"COc1ccccc1-c1ccc2ncc(S(=O)(=O)n3ncc4ncc(-c5cnn(C)c5)cc43)n2c1 [Example 97, 1-{[6-(2-methoxyphenyl)-imidazo[1,2-a]pyridine]-3-sulfonyl}-6-[(1-methyl)-4-pyrazolyl]-1-H-pyrazolo[4,3-b]pyridine]",–,"inhibition at 1 µM (MKN45 cell; MKN-45, 72 h, read-out: Cell proliferation inhibition rate at 1 μM (%)): 67.8%"
–,90.6,87.1,–,0.6 ± 0.1,"CC(C)N1CCC(n2cc(-c3cnc4cnn(S(=O)(=O)c5cnc6ccc(-c7cnn(C)c7)cn56)c4c3)cn2)CC1 [Example 145, 1-{(6-[(1-methyl)-4-pyrazolyl]-imidazo[1,2-a]pyridine)-3-sulfonyl}-6-{(1-[(1-isopropyl)-4-piperidinyl]}-4-pyrazolyl}-1-H-pyrazolo[4,3-b]pyridine]",–,"inhibition at 0.2 µM (EBC-1 cell): 92.4%; inhibition at 1 µM (EBC-1 cell): 92.8%; TV (mm^3, mean ± SD) d21 ([3]; 50 mg/kg po qd/21): 36 ± 49 mm^3; Weight (g) d21 ([3]; 50 mg/kg po qd/21): 19.9 g; GI (%) ([3]; 50 mg/kg po qd/21, d21): 106.14%; RTV (mean ± SD) ([3]; 50 mg/kg po qd/21, d21): 0.31 ± 0.50; T/C (%) ([3]; 50 mg/kg po qd/21, day 21): 2.36%; TV (mm^3, mean ± SD) d21 ([3]; 100 mg/kg po qd/21): 8 ± 13 mm^3; Weight (g) d21 ([3]; 100 mg/kg po qd/21): 19.1 g; GI (%) ([3]; 100 mg/kg po qd/21, d21): 107.77%; RTV (mean ± SD) ([3]; 100 mg/kg po qd/21, d21): 0.05 ± 0.09; T/C (%) ([3]; 100 mg/kg po qd/21, day 21): 0.40%"
70.5,62.9,67.8,70.5,2.5 ± 1.2,"Cn1cc(-c2cnc3cnn(S(=O)(=O)c4cnc5ccc(Cl)cn45)c3c2)cn1 [Example 24, 1-[(6-chloro-imidazo[1,2-a]pyridine)-3-sulfonyl]-6-[(1-methyl)-4-pyrazolyl]-1-H-pyrazolo[4,3-b]pyridine]",–,"inhibition at 0.2 µM (BaF3/TPR-Met cell; BaF3, 72 h): 65.9%; inhibition at 1 µM (BaF3/TPR-Met cell; BaF3, 72 h): 90.9%"

# From patent US9988381B2, “Five-member-heterocycle fused pyridine compounds, method of producing the same, and use thereof” (SHANGHAI INSTITUTE OF MATERIA MEDICA, CHINESE ACADEMY OF …, priority 2013, dated 2018)
